Test results as given in patent US8987195B2 (priority 2012, dated 2015).
Like-named read-outs stand apart in the source and are kept apart here.

Tests used:
HCV genotype 1b replicon = assay: HCV replicon assay, genotype 1b replicon EC50; type: cell-based, Hepatitis C virus; settings: Hepatitis C virus, read-out: EC50 [gt-1b]
Summary of the method: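 Replicon cells (Neo^r, some luciferase:Neo^r fusion); G418 removed at plating; compound dilution series, 24-48 h. Readout: RNA by 32P-probe hybridization/protection or TaqMan, normalized to cyclophilin A RNA, or luciferase. EC50 vs DMSO control, 4-parameter fit.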

[1] = molecular target: HCV NS3/4A protease genotype 1b (Hepatitis C virus genotype 1b, UniProt P26663); assay: HCV NS3/4A protease time-resolved fluorescence (TRF) assay, Ki against genotype 1b; type: biochemical
Sequence of HCV NS3/4A protease genotype 1b (P26663 1027-1657): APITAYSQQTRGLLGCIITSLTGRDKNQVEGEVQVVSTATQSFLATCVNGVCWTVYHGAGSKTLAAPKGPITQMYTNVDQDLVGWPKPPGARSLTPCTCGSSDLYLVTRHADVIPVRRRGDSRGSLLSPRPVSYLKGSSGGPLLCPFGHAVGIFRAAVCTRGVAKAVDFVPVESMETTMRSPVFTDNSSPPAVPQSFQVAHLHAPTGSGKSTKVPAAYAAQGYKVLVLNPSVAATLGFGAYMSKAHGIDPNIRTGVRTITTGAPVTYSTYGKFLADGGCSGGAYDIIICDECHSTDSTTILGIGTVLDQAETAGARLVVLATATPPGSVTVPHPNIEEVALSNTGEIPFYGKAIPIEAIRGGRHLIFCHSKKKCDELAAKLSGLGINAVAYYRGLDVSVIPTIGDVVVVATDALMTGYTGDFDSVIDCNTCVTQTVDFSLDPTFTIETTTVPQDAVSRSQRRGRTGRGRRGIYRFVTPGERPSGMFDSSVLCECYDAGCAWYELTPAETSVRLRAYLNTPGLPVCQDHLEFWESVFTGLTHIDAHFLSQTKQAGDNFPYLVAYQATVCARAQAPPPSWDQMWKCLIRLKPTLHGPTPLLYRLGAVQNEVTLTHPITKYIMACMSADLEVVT
Sequence of HCV NS3/4A protease genotype 1b (P26663 1658-1711): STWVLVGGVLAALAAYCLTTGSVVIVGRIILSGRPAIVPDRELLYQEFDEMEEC
Summary of the method: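 Ki values come from IC50 fits corrected for substrate concentration and KM. The time-resolved fluorescence protease reaction used 25 nM peptide substrate, 2.5 h, room temperature, pH 7.5 HEPES buffer, after 30 min enzyme–inhibitor preincubation.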

[2] = IC50 [gt-1b] (nM), NS3/4A genotype 1b, enzyme 0.2 nM
[3] = IC50 [gt-1b], NS3/4A protease TRF assay, genotype 1b enzyme 0.2 nM

Compound | EC50 (HCV genotype 1b replicon; genotype 1b replicon) | IC50 [1, 2] | EC50 (HCV genotype 1b replicon; HCV replicon, genotype 1b) | IC50 [1, 3] | further results
CC(C)COC(=O)N[C@H]1CCCCC/C=C\[C@@H]2C[C@@]2(C(=O)NS(=O)(=O)C2(C)CC2)NC(=O)[C@@H]2C[C@]3(CCc4c(c(C5CC5)nc5ccc(F)cc45)O3)CN2C1=O [Example 144, 2-methylpropyl [(2R,6S,12Z,13aS,14aR,16aS)-5′-cyclopropyl-9′-fluoro-14a-{[(1-methylcyclopropyl)sulfonyl]carbamoyl}-5,16-dioxo-1,1′,2′,5,6,7,8,9,10,11,13a,14,14a,15,16,16a-hexadecahydrospiro[cyclopropa[e]pyrrolo[1,2-a][1,4]diazacyclopentadecine-2,3′-pyrano[2,3-c]quinolin]-6-yl]carbamate] | 1.02 nM | 0.007 nM | – | – | –
Cc1nc2cc(F)c(F)cc2c2c1O[C@]1(CC2)C[C@H]2C(=O)N[C@]3(C(=O)NS(=O)(=O)C4(C)CC4)C[C@H]3/C=C\CCCCC[C@H](NC(=O)OCC3CCC3)C(=O)N2C1 [Example 225, cyclobutylmethyl [(2R,6S,12Z,13aS,14aR,16aS)-8′,9′-difluoro-5′-methyl-14a-{[(1-methylcyclopropyl)sulfonyl]carbamoyl}-5,16-dioxo-1,1′,2′,5,6,7,8,9,10,11,13a,14,14a,15,16,16a-hexadecahydrospiro[cyclopropa[e]pyrrolo[1,2-a][1,4]diazacyclopentadecine-2,3′-pyrano[2,3-c]quinolin]-6-yl]carbamate] | 12.5 nM | 0.031 nM | – | – | –
COc1ccc2c3c(c(C4CC4)nc2c1)O[C@]1(CC3)C[C@H]2C(=O)N[C@]3(C(=O)NS(=O)(=O)C4(C)CC4)C[C@H]3/C=C\CCCCC[C@H](NC(=O)OCC(C)C)C(=O)N2C1 [Example 136, 2-methylpropyl [(2R,6S,12Z,13aS,14aR,16aS)-5′-cyclopropyl-8′-methoxy-14a-{[(1-methylcyclopropyl)sulfonyl]carbamoyl}-5,16-dioxo-1,1′,2′,5,6,7,8,9,10,11,13a,14,14a,15,16,16a-hexadecahydrospiro[cyclopropa[e]pyrrolo[1,2-a][1,4]diazacyclopentadecine-2,3′-pyrano[2,3-c]quinolin]-6-yl]carbamate] | – | – | – | – | EC50 (HCV genotype 1b replicon; genotype 1b replicon, K+ salt): 2.12 nM; IC50 ([1]; IC50 [gt-1b] (nM), NS3/4A genotype 1b, enzyme 0.2 nM, K+ salt): 0.019 nM
Cc1nc2ccccc2c2c1O[C@]1(CC2)C[C@H]2C(=O)N[C@]3(C(=O)NS(=O)(=O)C4(C)CC4)C[C@H]3/C=C\CCCCC[C@H](Nc3nccs3)C(=O)N2C1 [Example 360, (2R,6S,12Z,13aS,14aR,16aS)-5′-methyl-N-[(1-methylcyclopropyl)sulfonyl]-5,16-dioxo-6-(1,3-thiazol-2-ylamino)-1,1′,2′,6,7,8,9,10,11,13a,14,15,16,16a-tetradecahydrospiro[cyclopropa[e]pyrrolo[1,2-a][1,4]diazacyclopentadecine-2,3′-pyrano[2,3-c]quinoline]-14a(5H)-carboxamide] | – | – | 140 nM | 0.143 nM | –
COc1ccc2nc(C)c3c(c2c1)CC[C@]1(C[C@H]2C(=O)N[C@]4(C(=O)NS(=O)(=O)C5(C)CC5)C[C@H]4/C=C\CCCCC[C@H](Nc4cccc(OC)n4)C(=O)N2C1)O3 [Example 431, (2R,6S,12Z,13aS,14aR,16aS)-9′-methoxy-6-[(6-methoxypyridin-2-yl)amino]-5′-methyl-N-[(1-methylcyclopropyl)sulfonyl]-5,16-dioxo-1,1′,2′,6,7,8,9,10,11,13a,14,15,16,16a-tetradecahydrospiro[cyclopropa[e]pyrrolo[1,2-a][1,4]diazacyclopentadecine-2,3′-pyrano[2,3-c]quinoline]-14a(5H)-carboxamide] | – | – | 9.12 nM | 0.209 nM | –
CCc1nc2ccc(OC)cc2c2c1O[C@]1(CC2)C[C@H]2C(=O)N[C@]3(C(=O)NS(=O)(=O)C4(C)CC4)C[C@H]3/C=C\CCCCC[C@H](NC(=O)OCC(C)(C)C)C(=O)N2C1 [Example 338, 2,2-dimethylpropyl [(2R,6S,12Z,13aS,14aR,16aS)-5′-ethyl-9′-methoxy-14a-{[(1-methylcyclopropyl)sulfonyl]carbamoyl}-5,16-dioxo-1,1′,2′,5,6,7,8,9,10,11,13a,14,14a,15,16,16a-hexadecahydrospiro[cyclopropa[e]pyrrolo[1,2-a][1,4]diazacyclopentadecine-2,3′-pyrano[2,3-c]quinolin]-6-yl]carbamate] | 1.53 nM | 0.009 nM | – | – | –
